In brackets after ≈: the same amount, converted by molar mass. Like-named read-outs stand apart in the source and are kept apart here.
Assays:
histamine H2 receptor [1] = target: T1, histamine H2 receptor (Cavia porcellus, UniProt P47747); assay: histamine H2 antagonism activity on the isolated guinea pig atrium (chronotropic response to histamine); format: cell-based, guinea pig (Hartley strain); conditions: experimental compound 10 μg/ml, histamine 0.05-2.5 μg/ml
T1 construct: histamine chronotropic response
T1 sequence (P47747 whole entry): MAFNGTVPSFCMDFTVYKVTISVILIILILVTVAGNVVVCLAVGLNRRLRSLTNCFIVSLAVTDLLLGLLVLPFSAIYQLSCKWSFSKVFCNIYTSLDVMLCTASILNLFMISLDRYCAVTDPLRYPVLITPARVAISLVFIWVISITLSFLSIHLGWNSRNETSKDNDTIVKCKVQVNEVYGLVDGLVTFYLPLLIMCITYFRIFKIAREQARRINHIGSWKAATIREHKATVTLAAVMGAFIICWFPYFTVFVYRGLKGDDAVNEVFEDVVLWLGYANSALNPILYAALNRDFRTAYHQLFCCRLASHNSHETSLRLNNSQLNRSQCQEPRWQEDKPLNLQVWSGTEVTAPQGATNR
Protocol: The histamine H2 antagonism activity of these piperidinyl-alkyl-benzamide compounds was tested on the isolated guinea pig atrium. The atria from Hartley strain guinea pigs were dissected and suspended in 25 ml of McEwen's solution and attached to a transducer. Spontaneous atrial rate was determined from the recorder tracing. Chronotropic responses to increasing concentrations of histamine (0.05-2.5 μg/ml) were evaluated in the presence of placebo or experimental compound. Results are expressed in Table I as the ratio of concentration of histamine required to increase atrial rate by 50 beats/minute:concentration of histamine required to increase atrial rate by 50 beats/minute in the presence of experimental compound, 10 μg/ml.

histamine H2 receptor [2] = assay: histamine H2 antagonist activity in vivo: block of histamine-stimulated gastric acid secretion in the lumen-perfused anesthetized rat; set-up: species or system rat (Sprague Dawley); conditions: urethane-anesthetized rat; antagonist 0.24 mg/kg rapid I.V.; histamine 0.13 μmol/kg/hr; compounds as hydrochloride salts
Protocol: Sprague Dawley rats weighing between 150-200 g were used for the evaluations. Perfusion was carried out with 5% glucose solution at 37° C. Administration of histamine and test compounds was carried out by rapid I.V. injection via cannulated jugular vein. Doses of 0.13 μmol/kg/hr. of histamine were used, and 0.24 mg/kg of antagonist test compound.

isolated rat uterus = assay: block of the contractile response to histamine of the isolated rat uterus; format: cell-based, rat (Sprague Dawley, female); conditions: read-out: EC50 (concentration of experimental compound required to block the contractile effect of histamine by 50%)
Protocol: Further evaluation involved testing the ability of the piperidinyl-alkyl-benzamides to block the response to histamine by the isolated rat uterus. Female Sprague Dawley rats weighing approximately 150 g were injected with diethylstilbesterol (0.15 mg/rat) fifteen hours prior to sacrifice. […] The results are expressed as the % change in the contractile response to histamine relative to placebo-histamine evaluation in Table III.

histamine H2 receptor [3] = assay: histamine H2-receptor antagonist activity in standard pharmacological tests (Tables I, II and III); conditions: result in words
Protocol: The histamine H2 antagonism activity of these piperidinyl-alkyl-benzamide compounds was tested on the isolated guinea pig atrium. The atria from Hartley strain guinea pigs were dissected and suspended in 25 ml of McEwen's solution and attached to a transducer. Spontaneous atrial rate was determined from the recorder tracing. Chronotropic responses to increasing concentrations of histamine (0.05-2.5 μg/ml) were evaluated in the presence of placebo or experimental compound. […]
The piperidine-alkyl-benzamides, as their hydrochloride salts, were evaluated for histamine H2 antagonist activity, in vivo, by their ability to block the stimulation of acid secretion by histamine from the lumen-perfused anesthetized (urethane) rat preparation as described in Ash and Shield, Br. J. Pharmacol. Chemotherapy 27, 427 (1966) and Durant, et al., J. Med. Chem. 18, 905 (1975). […]
Further evaluation involved testing the ability of the piperidinyl-alkyl-benzamides to block the response to histamine by the isolated rat uterus. […] Contractile responses were evaluated after the addition of placebo; after the addition of experimental compounds; and after the addition of histamine (25 μg/ml). The results are expressed as the % change in the contractile response to histamine relative to placebo-histamine evaluation in Table III. […]
The product was evaluated according to Tables I, II, and III above.

[4] = isolated rat uterus, histamine 25 μg/ml, diethylstilbesterol-primed

HISTAMINE RATIO (concentration of histamine required to increase atrial rate by 50 beats/minute : same in the presence of experimental compound) (histamine H2 receptor [1]) | EC50 (isolated rat uterus; [4]) [µg/mL] | Compound | MEAN % INHIBITION OF GASTRIC ACID SECRETION (histamine H2 receptor [2]) [%] | EC50 (isolated rat uterus; Rattus norvegicus) [µg/mL] | histamine H2-receptor antagonist activity (histamine H2 receptor [3])
0.005 | 0.38 (≈ 1.74 µM) | O=C(NCC1CCNCC1)c1ccccc1 [Example 1, N-(4-Piperidinylmethyl)benzamide] | 40 ± 6 | – | significant amount of histamine H2 --receptor antagonist activity
0.004 | 0.31 (≈ 1.33 µM) | Cc1ccc(C(=O)NCC2CCNCC2)cc1 [Example 2, N-(4-piperidinylmethyl)-p-methylbenzamide] | 52 ± 5 | – | –

Compound | HISTAMINE RATIO (concentration of histamine required to increase atrial rate by 50 beats/minute : same in the presence of experimental compound) (histamine H2 receptor [1]) | EC50 (isolated rat uterus; [4]) [µg/mL] | MEAN % INHIBITION OF GASTRIC ACID SECRETION (histamine H2 receptor [2]) [%] | EC50 (isolated rat uterus; Rattus norvegicus) [µg/mL] | histamine H2-receptor antagonist activity (histamine H2 receptor [3])
CN/C(=N/CCSCc1nc[nH]c1C)NC#N [Cimetidine, reference compound] | 0.0025 | – | 78 ± 8 | 0.3 (≈ 1.19 µM) | –
